Measurements taken from patent US7196063B1, “Peptides and pharmaceutical compositions comprising same” (NST NeuroSurvival Technologies Ltd., priority 1999, dated 2007).
Like-named read-outs stand apart in the source and are kept apart here.

What was measured:
[1] = tested on: apoptotic HeLa cells; experiment: Binding to single apoptotic HeLa cells, fluorescent microscopy; format: cell-based
Method: Chamber slides were pre-coated with 0.1% gelatin (G-1393 Sigma). Cells were seeded at a density of 8×10^4 cells/chamber, in a volume of 300 μl of culture medium. Apoptosis was induced by treatment with dopamine (RBI, MA, USA). Following 24 hours of incubation, the medium was replaced by a low serum-containing medium (2% FCS), with 500 μM of dopamine, for 18 hours. Non-treated cells that served as control, were kept in the growing medium without dopamine.
For evaluation of apoptosis, cells were stained with 1 mg/ml of Hoechst 33342 dye (Molecular probes). Twenty minutes later, cells were visualized under UV light microscopy and the relative number of apoptotic cells with condensed or fragmented chromatin was then evaluated and compared with non-apoptotic cells, showing a pale and diffuse staining. Photomicrographs were taken for documentation, but are not shown here. For staining with NST500 compounds, the tested cultures were grown as specified above and washed twice with TBS (Tris Buffered Saline; 10 mM Tris PH 8.0; 150 mM NaCl). […]
As a positive control, binding of Annexin V was performed using commercial kit (Genzyme, Mass.). Binding was evaluated with a fluorescent microscope (IX70; Olympus), using an NIBA filter (Narrow Interference Blue A from Olympus) and a ×400 magnification. […]

[2] = tested on: apoptotic HeLa cells
Method: One of the final steps of both intrinsic and extrinsic path-ways of coagulation, is the generation of thrombin from prothrombin. Thrombin is the final protease generated in the sequence of coagulation reaction, and its activity entails conversion of fibrinogen to fibrin, thus forming the clot. Generation of thrombin on the pro-coagulant surface of apoptotic cells was assayed (according to Bombeli T. et al., 1997, Blood 89(7), 2429–2442), by determining its activity, using the chromogenic substrate S-2366 (from Chromogenix, Sweden). Samples of pro-coagulant cells (HeLa cells treated with 500 μM of DA for 18 hours) were used for the assay. Reaction mixture, in a plastic 1 ml cuvette, contained 100 μl of cells (1.5×10^5), 350 μl of HBS (150 mM NaCl, 10 mM Hepes pH 7), and 150 μl of normal control plasma, that was re-calcified with 300 μl of 25 mM CaCl2. The reaction was started by addition of the substrate S-2366 to a final concentration of 0.2 mM, and the kinetics of thrombin activity was determined by optical density at OD405. Data was collected and analyzed by the Swift kinetics software (Pharmacia).

[3] = tested on: HUVEC cells; experiment: Cell-ELISA: binding of anti β2GPI antibodies to HUVEC cells; format: cell-based, Human
Method: Human β2GPI is a plasma phospholipid binding protein that is required for the binding of autoantibodies in sera from patients with APS to cardiolipin (McNeil H P et al., 1990 Proc. Natl. Acad. Sci. 87, 4120–4124). […] Anti β2GPI antibodies are present in sera of APS patients. […] For cell-ELISA tests, HUVEC cells (at 40,000/well), were plated on 96 well tissue culture plates (Nunc) in 200 μl of the culture medium, and allowed to grow for 18–22 hours. Following 2 washes with Hepes buffer (10 mM Hepes pH 8, 140 mM NaCl) and 5 min incubation with the culture medium, the wells were incubated for 3 hr with 10% of normal plasma in PBS (as a source of β2 GPI protein), supplemented with 1/500 of goat anti-human Apolipoprotein-H (β2 GPI) (Affinity biologicals, PA). Parallel control wells were incubated with 10% of normal plasma from Ilex. Serial dilutions of NST500 compounds were prepared in plasma/PBS. Washes and development were as described for anti CL ELISA.
As presented in FIG. 5B, in the presence of plasma and absence of NST500, HUVEC cells supported binding of anti β2GPI to their surface. However, displacement of anti β2GPI by NST500 compounds in this system occurred in a concentration dependent manner, similar to the results obtained with CL.

[4] = tested on: apoptotic hepatocytes; format: in vivo, mice; settings: mouse, in vivo
Method: Massive hepatic apoptosis can be induced within 1–2 hr in mice following intravenous injection of anti-Fas antibody (Ogasawara J. et al., 1993, Nature, 364, 806–809). […] Five-weeks-old male BALB/c mice were injected intravenously with 10 μg/animal of purified hamster anti-Fas mAb (Jo2, PharMingen, San Diego, Calif.) using the model described by Ogasawara et. al. (Nature, 1993, 364, 806–809). […] Injections were performed at different time intervals between 5 min–2 hr after antibody treatment. […] All animals were killed 2 hr after administration of antibody followed by organ removal. Heart, lung and liver were collected. Liver were sectioned transversely across the mid-portion of each lobe; organs were fixed in phosphate-buffered formalin for histological and immunohisto-chemical analyses.
Formalin fixed paraffin-embedded tissues were sectioned (5 μm) for staining with Hematoxylin/Eosin or other techniques. Endogenous peroxidase activity was blocked by incubation with 3% H2O2.
After washing with PBS, staining was developed with 3,3-diaminobenzidine tetrahydrochloride (DAB), and counterstained with Hematoxylin.
Liver sections from different lobes were used for detection of stained apoptotic cells compared to normal cells. Using light microscopy (×400), twenty fields of stained cells were evaluated. A ratio between the number of stained apoptotic hepatocytes versus stained normal hepatocytes in the field was defined. The stained cell's score (%) corresponds to the mean of the values for the twenty evaluated fields.
The percentage of apoptotic cells in the fields was estimated by evaluating parallel sections stained with Hematoxylin/Eosin. Analysis was performed blindly, since the pathologist performing the histological evaluation was unaware of the assignment of mice to the treatment or control group.
To quantitate the microscopic examination of the pharmacokinetics studies, the number of stained cells from 20 microscopic fields was counted.

Myristate-KVSFFCKNKEKKC-K (SEQ ID NO:1) (biotin) [NST513]
labeling of apoptotic HeLa cells [1]: potent detector of apoptotic cells | labeling of control non-treated HeLa cells [1]: did not exhibit significant labeling | change of time needed for obtaining 50% of thrombin activity (factor) ([2]; 5 μM): 1.5 | change of time needed for obtaining 50% of thrombin activity (factor) ([2]; 10 μM): 2.6 | thrombin generation by apoptotic cells ([2]; 10 μM): rate of thrombin generation was also inhibited | thrombin generation by apoptotic cells ([2]; 25 μM): fully block | thrombin activity (reflecting thrombin generation), dose response ([2]; 5–50 μM): effectively inhibited | thrombin generation by apoptotic cells ([2]; 25–50μM): Total blockage of thrombin generation | less potent than NST516 in blocking anti β2 GPI binding [3]: 50% | increase in number of stained apoptotic cells as compared to non specific staining of non-apoptotic cells [4]: 3 times | ratio of apoptotic stained cells vs non-apoptotic cells [4]: 5 fold | staining of normal hepatocytes [4]: never observed | staining of apoptotic hepatocytes in anti-Fas treated mice ([4]; iv): observed at cytoplasma and cytoplasmatic border of apoptotic hepatocytes
